Experimental data from patent publication US11161819B2, “Substituted tetrahydroisoquinoline compounds useful as GPR120 agonists” (Merck Sharp & Dohme Corp., priority 2016, dated 2021).

Biological target: T1, human GPR120 (Homo sapiens, UniProt Q5NUL3)
T1 construct: expressed in transfected cells
T1 sequence (Q5NUL3 1-361): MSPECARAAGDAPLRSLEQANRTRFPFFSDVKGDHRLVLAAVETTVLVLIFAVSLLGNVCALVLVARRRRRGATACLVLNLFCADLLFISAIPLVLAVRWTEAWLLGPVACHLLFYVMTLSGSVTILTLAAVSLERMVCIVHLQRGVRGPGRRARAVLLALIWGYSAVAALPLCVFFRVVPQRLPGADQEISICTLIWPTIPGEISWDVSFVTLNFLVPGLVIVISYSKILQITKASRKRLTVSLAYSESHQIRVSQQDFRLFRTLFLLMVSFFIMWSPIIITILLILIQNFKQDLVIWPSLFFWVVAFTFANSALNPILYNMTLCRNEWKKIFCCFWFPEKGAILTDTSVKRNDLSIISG
Assay: Human GPR120 IP1 Assay (inositol phosphate turnover, CisBio IP-One kit)
Assay type: cell-based
Conditions: IP1 accumulation in CHO-K1 cells stably expressing the short form of human GPR120; 60 min compound incubation; 4-parameter fit; read-out: hGPR120 EC50
In short: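 CHO-K1 cells stably expressing short-form human GPR120 were stimulated with compounds for 60 minutes at 37 degrees in stimulation buffer. IP1 accumulation measured by HTRF competitive immunoassay (665/620 nm ratio) against an IP1 standard curve, normalized to a reference compound; EC50 from 4-parameter fit.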

Row | SMILES | EC50 [nM]
1 | Cc1ccc(-n2nc(C)c(C#N)c2N2CCc3cc(O)ccc3C2)cc1 [Example 129, 5-(6-hydroxy-3,4-dihydroisoquinolin-2(1H)-yl)-3-methyl-1-(p-tolyl)-1H-pyrazole-4-carbonitrile] | 92
2 | CC1c2ccc(CCC(=O)O)cc2CCN1c1cc(OC2CCC2)ccc1F (centres unmarked) [Example 6, 3-(2-(5-cyclobutoxy-2-fluorophenyl)-1-methyl-1,2,3,4-tetrahydroisoquinolin-6-yl)-propanoic acid] | 417
3 | C[C@H]1C[C@H](Oc2cc(F)c(F)c(N3CCc4cc([C@@H]5C[C@H]5C(=O)O)ccc4C3)c2)C1 [Example 101, (1R,2R)-2-(2-{2,3-difluoro-5-[(trans-3-methylcyclobutyl)oxy]phenyl}-1,2,3,4-tetrahydroiso-quinolin-6-yl)-cyclopropane-carboxylic acid] | 273
4 | O=C(O)[C@@H]1C[C@H]1c1ccc2c(c1)CCN(c1cc(OC(F)(F)F)ccc1F)C2 [Example 87, (1R,2R)-2-{2-[2-fluoro-5-(trifluoro-methoxy)phenyl]-1,2,3,4-tetra hydroisoquinolin-6-yl}cyclo-propane carboxylic acid] | 74
5 | COc1cc(O[C@H]2C[C@H](OC)C2)cc(N2CCc3cc([C@H]4C[C@@H]4C(=O)O)ccc3C2)c1C#N [Example 97, (1S,2S)-2-(2-{2-cyano-3-methoxy-5-[(trans-3-methoxycyclobutyl)oxy]phenyl}-1,2,3,4-tetrahydroisoquinolin-6-yl) cyclopropanecarboxylic acid] | 1580
6 | N#Cc1ccc(OC(F)(F)F)cc1N1CCc2c(ccc([C@H]3C[C@@H]3C(=O)O)c2F)C1 [Example 117, (1S,2S)-2-{2-[2-cyano-5-(trifluoromethoxy)phenyl]-5-fluoro-1,2,3,4-tetrahydroisoquinolin-6-yl} cyclopropane-carboxylic acid] | 143
7 | O=C(O)CCc1ccc2c(c1)CCN(c1cc(Cl)c(C(F)(F)F)c(Cl)c1)C2 [Example 40, 3-{2-[3,5-dichloro-4-(trifluoro-methyl)phenyl]-1,2,3,4-tetrahydro-isoquinolin-6-yl}propanoic acid] | 463
8 | Cc1ccc(-n2nc(C)c(F)c2N2CCc3cc(C4CC4C(=O)O)ccc3C2)cc1 (centres unmarked) [Example 94, 2-{2-[4-fluoro-3-methyl-1-(4-methylphenyl)-1H-pyrazol-5-yl]-1,2,3,4-tetrahydroisoquinolin-6-yl}cyclo-propanecarboxylic acid] | 473
9 | Cc1ccc(-n2nc(C)c(C#N)c2N2CCc3cc(OCCCCO)ccc3C2)cc1 [Example 139, 5-[6-(4-hydroxybutoxy)-3,4-dihydro-isoquinolin-2(1H)-yl]-3-methyl-1-(4-methylphenyl)-1H-pyrazole-4-carbonitrile] | 187
10 | COc1cc(F)c(N2CCc3cc(CCC(=O)O)ccc3C2)cc1OC1CCC1 [Example 31, 3-{2-[5-(cyclobutyloxy)-2-fluoro-4-methoxyphenyl]-1,2,3,4-tetrahydroisoquinolin-6-yl}-propanoic acid] | 182
11 | O=C(O)[C@H]1C[C@@H]1c1ccc2c(c1F)CCN(c1cc(OC(F)(F)F)cc(F)c1Cl)C2 [Example 124, (1S,2S)-2-{2-[2-chloro-3-fluoro-5-(trifluoromethoxy)phenyl]-5-fluoro-1,2,3,4-tetrahydro-isoquinolin-6-yl}cyclopropane-carboxylic acid] | 824
12 | CC(Cc1ccc2c(c1F)CCN(c1cc(OC(F)(F)F)cc(Cl)c1F)C2)C(=O)O (single isomer, unassigned) [Example 69, 3-{2-[3-chloro-2-fluoro-5-(trifluoromethoxy)phenyl]-5-fluoro-1,2,3,4-tetrahydroisoquinolin-6-yl}-2-methyl-propanoic acid] | 231
13 | O=C(O)CCc1ccc2c(c1)CCN(c1cccc(SC3CCC3)n1)C2 [Example 38, 3-{2-[6-(cyclobutylsulfanyl)pyridin-2-yl]-1,2,3,4-tetrahydroiso-quinolin-6-yl}propanoic acid] | 405
14 | O=C(O)CCc1ccc2c(c1)CCN(c1cc3c(C(F)(F)F)noc3cc1F)C2 [Example 29, 3-{2-[6-fluoro-3-(trifluoromethyl)-1,2-benzisoxazol-5-yl]-1,2,3,4-tetrahydroisoquinolin-6-yl}-propanoic acid] | 171
15 | N#Cc1c(F)cc(OC(F)(F)F)cc1N1CCc2c(ccc([C@H]3C[C@@H]3C(=O)O)c2F)C1 [Example 119, (1S,2S)-2-{2-[2-cyano-3-fluoro-5-(trifluoromethoxy)phenyl]-5-fluoro-1,2,3,4-tetrahydroisoquinolin-6-yl}cyclopropane-carboxylic acid] | 273
16 | Cc1ccc(-n2nc(C)c(F)c2CN2CCc3cc(CCC(=O)O)ccc3C2)cc1 [Example 143, 3-(2-{[4-fluoro-3-methyl-1-(4-methylphenyl)-1H-pyrazol-5-yl]methyl}-1,2,3,4-tetrahydroisoquinolin-6-yl)propanoic acid] | 395
17 | COc1cc(Cl)c(N2CCc3cc(CCC(=O)O)ccc3C2)cc1OC1CCC1 [Example 24, 3-{2-[2-chloro-5-(cyclobutyloxy)-4-methoxyphenyl]-1,2,3,4-tetrahydroisoquinolin-6-yl}propanoic acid] | 61
18 | C[C@H]1C[C@H](Oc2cc(F)c(F)c(N3CCc4c(ccc([C@H]5C[C@@H]5C(=O)O)c4F)C3)c2)C1 [Example 122, (1S,2S)-2-(2-{2,3-difluoro-5-[(trans-3-methylcyclobutyl)oxy]phenyl}-5-fluoro-1,2,3,4-tetrahydro-isoquinolin-6-yl)cyclopropane-carboxylic acid] | 121
19 | Cc1ccc(-n2nc(C)c(Cl)c2N2CCc3c(ccc(CCC(=O)O)c3F)C2)cc1 [Example 146, 3-{2-[4-chloro-3-methyl-1-(4-methylphenyl)-1H-pyrazol-5-yl]-5-fluoro-1,2,3,4-tetrahydroisoquinolin-6-yl}propanoic acid] | 309
20 | Cc1cc(-c2cscn2)nc(N2CCc3c(ccc(CCC(=O)O)c3F)C2)c1C#N [Example 147, 3-[2-(3-Cyano-4-methyl-6-thiazol-4-yl-pyridin-2-yl)-5-fluoro-1,2,3,4-tetrahydro-isoquinolin-6-yl]-propionic acid] | 141
21 | CO[C@H]1C[C@H](Oc2cc(F)c(F)c(N3CCc4cc(CCc5nnn[nH]5)ccc4C3)c2)C1 [Example 132, 6-(2-(1H-tetrazol-5-yl)ethyl)-2-(2,3-difluoro-5-((1r,3r)-3-methoxylcyclobutoxy)-phenyl)-1,2,3,4-tetrahydroisoquinoline] | 406

The remaining lines, values ahead:

Row | EC50 [nM] | SMILES
22 | 61 | O=C(O)CCc1ccc2c(c1)CCN(c1cc(OC(F)(F)F)ccc1F)C2 [Example 27, 3-{2-[2-fluoro-5-(trifluoro-methoxy)phenyl]-1,2,3,4-tetrahydro-isoquinolin-6-yl}propanoic acid]
23 | 15 | Cc1c(CCC(=O)O)ccc2c1CCN(c1cc(OC3CCC3)cc(F)c1C#N)C2 [Example 157, 3-{2-[2-cyano-5-(cyclobutyloxy) 3-fluorophenyl]-5-methyl-1,2,3,4-tetrahydroisoquinolin-6-yl}-propanoic acid]
24 | 19 | N#Cc1ccc(OC(F)(F)F)cc1N1CCc2c(ccc(CCC(=O)O)c2F)C1 [Example 78, 3-{2-[2-cyano-5-(trifluoromethoxy)phenyl]-5-fluoro-1,2,3,4-tetrahydro-isoquinolin-6-yl}propanoic acid]
25 | 58 | CC(Cc1ccc2c(c1F)CCN(c1cc(OC(F)(F)F)cc(Cl)c1F)C2)C(=O)O (single isomer, unassigned) [Example 68, 3-{2-[3-chloro-2-fluoro-5-(trifluoromethoxy)phenyl]-5-fluoro-1,2,3,4-tetrahydroisoquinolin-6-yl}-2-methyl-propanoic acid]
26 | 34 | Cc1nc(N2CCc3c(ccc(CCC(=O)O)c3F)C2)nc(OC2CCC2)c1C#N [Example 151, 3-{2-[5-cyano-4-(cyclobutyloxy)-6-methylpyrimidin-2-yl]-5-fluoro-1,2,3,4-tetrahydroisoquino-lin-6-yl}propanoic acid]
27 | 59 | O=C(O)[C@@H]1C[C@H]1c1ccc2c(c1F)CCN(c1cc(OC(F)(F)F)ccc1F)C2 [Example 113]
28 | 50 | COc1ccc(-n2nc(C)c(C#N)c2N2CCc3cc(CCCCC(=O)O)ccc3C2)cc1 [Example 133, 5-{2-[4-cyano-1-(4-methoxyphenyl)-3-methyl-1H-pyrazol-5-yl]-1,2,3,4-tetrahydroisoquinolin-6-yl} pentanoic acid]
29 | 17 | O=C(O)CCc1ccc2c(c1)CCN(c1cc(Oc3ccccn3)cc(C(F)F)c1F)C2 [Example 2, 3-(2-(3-(difluoromethyl)-2-fluoro-5-(pyridin-2-yloxy)phenyl)-1,2,3,4-tetrahydro-isoquinolin-6-yl)propanoic acid]
30 | 24 | COc1cc(OC2CCC2)cc(N2CCc3cc(CCC(=O)O)ccc3C2)c1F [Example 18, 3-{2-[5-(cyclobutyloxy)-2-fluoro-3-methoxyphenyl]-1,2,3,4-tetra-hydroisoquinolin-6-yl}propanoic acid]
31 | 14 | O=C(O)CCc1ccc2c(c1)CCN(c1cc(OC3CCC3)cc(C(F)F)c1F)C2 [Example 10, 3-{2-[5-(cyclobutyloxy)-3-(difluoromethyl)-2-fluorophenyl]-1,2-3,4-tetrahydroisoquinolin-6-yl}-propanoic acid]
32 | 22 | O=C(O)CCc1ccc2c(c1)CCN(c1cc(OC(F)(F)F)cc(Cl)c1F)C2 [Example 15, 3-{2-[3-chloro-2-fluoro-5-(trifluoromethoxy)phenyl]-1,2,3,4-tetrahydroisoquinolin-6-yl}-propanoic acid]
